Measurements: article PMC10442912 (2023)

Tests used:
[1] = system: CAP1 (DNA, aptamer) CGACATAGAGGATCCATCTTGGGGTGTGTAGTGTGTCG; test: fluorescence titration; conditions: 10 mM Mg2+; 20 mM Tris-HCl pH 7.8; CAP1 titrated into 2.5 μM ThT
[2] = system: CAP1 (DNA, aptamer) CGACATAGAGGATCCATCTTGGGGTGTGTAGTGTGTCG; test: ITC; conditions: 300 mM Na+, 5 mM K+, 10 mM Mg2+; 50 mM Tris-HCl pH 7.8, 25 °C, preannealed
[3] = system: CAP1 (DNA, aptamer) CGACATAGAGGATCCATCTTGGGGTGTGTAGTGTGTCG; test: ThT fluorescence displacement; conditions: 10 mM Mg2+; 50 mM Tris-HCl pH 7.8; 1 μM aptamer, 0.5 μM ThT displaced
[4] = system: CAP3 (DNA, aptamer) CGACCTAGTGTCCATCGTTCAGTTCCGATTTCTGGTCG; test: ThT fluorescence displacement; conditions: 10 mM Mg2+; 50 mM Tris-HCl pH 7.8; 1 μM aptamer, 0.5 μM ThT displaced

| Kd [1] [µM] | Kd [2] [µM] | Kd [3] [µM] | Kd [4] [µM] | Compound |
| --- | --- | --- | --- | --- |
| 2.3 |  |  |  | Cc1ccc2c(c1)sc(-c1ccc(N(C)C)cc1)[n+]2C |
|  | 9.8 ± 0.5 | 4.2 | 46 | O=C(N[C@H](CO)[C@H](O)c1ccc([N+](=O)[O-])cc1)C(Cl)Cl |
